± gives the expanded uncertainty stated by the source.
How the values were obtained:
[1] = Liquid, Vibrating tube method
[2] = xn = mol fraction of the nth substance listed; details: Liquid, x2 = 0

CC(C)(C)O [2-methylpropan-2-ol]
mass density ([1]; 308.15 K, 101.3 kPa): 770.14 ± 1 kg/m3 | mass density ([1]; 323.15 K, 101.3 kPa): 753.94 ± 1 kg/m3 | mass density ([1]; 323.15 K, 10000 kPa): 764.58 ± 1 kg/m3 | mass density ([1]; 323.15 K, 25000 kPa): 778.73 ± 1.1 kg/m3 | mass density ([1]; 323.15 K, 50000 kPa): 798.2 ± 1.1 kg/m3 | mass density ([1]; 323.15 K, 75000 kPa): 813.79 ± 1.2 kg/m3 | mass density ([1]; 323.15 K, 100000 kPa): 827.34 ± 1.3 kg/m3

O [water]
mass density ([1]; 278.15 K, 101.3 kPa): 999.96 ± 1 kg/m3 | mass density ([1]; 278.15 K, 10000 kPa): 1004.77 ± 1 kg/m3 | mass density ([1]; 278.15 K, 25000 kPa): 1011.88 ± 1.1 kg/m3 | mass density ([1]; 278.15 K, 50000 kPa): 1023.2 ± 1.1 kg/m3 | mass density ([1]; 278.15 K, 75000 kPa): 1033.91 ± 1.2 kg/m3 | mass density ([1]; 278.15 K, 100000 kPa): 1044.08 ± 1.3 kg/m3 | mass density ([1]; 288.15 K, 10000 kPa): 1003.67 ± 1 kg/m3 | mass density ([1]; 288.15 K, 25000 kPa): 1010.42 ± 1.1 kg/m3 | mass density ([1]; 288.15 K, 50000 kPa): 1021.21 ± 1.1 kg/m3 | mass density ([1]; 288.15 K, 75000 kPa): 1031.47 ± 1.2 kg/m3 | mass density ([1]; 288.15 K, 100000 kPa): 1041.23 ± 1.3 kg/m3 | mass density ([1]; 298.15 K, 10000 kPa): 1001.47 ± 1 kg/m3 | mass density ([1]; 298.15 K, 25000 kPa): 1007.99 ± 1.1 kg/m3 | mass density ([1]; 298.15 K, 50000 kPa): 1018.44 ± 1.1 kg/m3 | mass density ([1]; 298.15 K, 75000 kPa): 1028.37 ± 1.2 kg/m3 | mass density ([1]; 298.15 K, 100000 kPa): 1037.86 ± 1.3 kg/m3 | mass density ([1]; 308.15 K, 10000 kPa): 998.36 ± 1 kg/m3 | mass density ([1]; 308.15 K, 25000 kPa): 1004.75 ± 1.1 kg/m3 | mass density ([1]; 308.15 K, 50000 kPa): 1014.97 ± 1.1 kg/m3 | mass density ([1]; 308.15 K, 75000 kPa): 1024.71 ± 1.2 kg/m3 | mass density ([1]; 308.15 K, 100000 kPa): 1034 ± 1.3 kg/m3 | mass density ([1]; 323.15 K, 101.3 kPa): 988.03 ± 1 kg/m3 | mass density ([1]; 323.15 K, 10000 kPa): 992.31 ± 1 kg/m3 | mass density ([1]; 323.15 K, 25000 kPa): 998.61 ± 1.1 kg/m3 | mass density ([1]; 323.15 K, 50000 kPa): 1008.68 ± 1.1 kg/m3 | mass density ([1]; 323.15 K, 75000 kPa): 1018.27 ± 1.2 kg/m3 | mass density ([1]; 323.15 K, 100000 kPa): 1027.42 ± 1.3 kg/m3

O [water] + CC(C)(C)O
mass density ([2]; 278.15 K, 101.3 kPa, Vibrating tube method): 999.96 ± 1 kg/m3 | mass density ([2]; 278.15 K, 10000 kPa, Constant-volume piezometry): 1004.77 ± 1 kg/m3 | mass density ([2]; 278.15 K, 25000 kPa, Constant-volume piezometry): 1011.88 ± 1.1 kg/m3 | mass density ([2]; 278.15 K, 50000 kPa, Constant-volume piezometry): 1023.2 ± 1.1 kg/m3 | mass density ([2]; 278.15 K, 75000 kPa, Constant-volume piezometry): 1033.91 ± 1.2 kg/m3 | mass density ([2]; 278.15 K, 100000 kPa, Constant-volume piezometry): 1044.08 ± 1.3 kg/m3 | mass density ([2]; 288.15 K, 10000 kPa, Constant-volume piezometry): 1003.67 ± 1 kg/m3 | mass density ([2]; 288.15 K, 25000 kPa, Constant-volume piezometry): 1010.42 ± 1.1 kg/m3 | mass density ([2]; 288.15 K, 50000 kPa, Constant-volume piezometry): 1021.21 ± 1.1 kg/m3 | mass density ([2]; 288.15 K, 75000 kPa, Constant-volume piezometry): 1031.47 ± 1.2 kg/m3 | mass density ([2]; 288.15 K, 100000 kPa, Constant-volume piezometry): 1041.23 ± 1.3 kg/m3 | mass density ([2]; 298.15 K, 10000 kPa, Constant-volume piezometry): 1001.47 ± 1 kg/m3 | mass density ([2]; 298.15 K, 25000 kPa, Constant-volume piezometry): 1007.99 ± 1.1 kg/m3 | mass density ([2]; 298.15 K, 50000 kPa, Constant-volume piezometry): 1018.44 ± 1.1 kg/m3 | mass density ([2]; 298.15 K, 75000 kPa, Constant-volume piezometry): 1028.37 ± 1.2 kg/m3 | mass density ([2]; 298.15 K, 100000 kPa, Constant-volume piezometry): 1037.86 ± 1.3 kg/m3 | mass density ([2]; 308.15 K, 10000 kPa, Constant-volume piezometry): 998.36 ± 1 kg/m3 | mass density ([2]; 308.15 K, 25000 kPa, Constant-volume piezometry): 1004.75 ± 1.1 kg/m3 | mass density ([2]; 308.15 K, 50000 kPa, Constant-volume piezometry): 1014.97 ± 1.1 kg/m3 | mass density ([2]; 308.15 K, 75000 kPa, Constant-volume piezometry): 1024.71 ± 1.2 kg/m3 | mass density ([2]; 308.15 K, 100000 kPa, Constant-volume piezometry): 1034 ± 1.3 kg/m3 | mass density ([2]; 323.15 K, 101.3 kPa, Vibrating tube method): 988.03 ± 1 kg/m3 | mass density ([2]; 323.15 K, 10000 kPa, Constant-volume piezometry): 992.31 ± 1 kg/m3 | mass density ([2]; 323.15 K, 25000 kPa, Constant-volume piezometry): 998.61 ± 1.1 kg/m3 | mass density ([2]; 323.15 K, 50000 kPa, Constant-volume piezometry): 1008.68 ± 1.1 kg/m3 | mass density ([2]; 323.15 K, 75000 kPa, Constant-volume piezometry): 1018.27 ± 1.2 kg/m3 | mass density ([2]; 323.15 K, 100000 kPa, Constant-volume piezometry): 1027.42 ± 1.3 kg/m3

From the NIST ThermoML archive (doi:10.1016/j.jct.2012.09.026)
